“Also recorded” adds a separate entry of the source.
How the values were obtained:
PHGDH = assay: Microarray analysis of xenograft material, PHGDH transcript; format: in vivo, mice
Excerpt: PHGDH was included in the biomarker panel following microarray analysis of Mv4-11 and MOLM13 xenograft material after BGB324-treatment.

pAxl (Y779) = assay: pAxl(Y779) in AML cell panel, short term treatment, flow cytometry; format: cell-based, human; conditions: 1 hour
Procedure: (§1) Staining of Cells for Flow Cytometry, General Protocol: • Live cells were centrifuged at 300 G for 5 minutes, washed once with PBS and centrifuged again. Cells were then fixed in 4% PFA in PBS for 10 minutes at 37° C., and resuspended in PBS. Unless processed immediately, samples were at this point stored in PBS at 4° C. (up to three weeks) or at −80° C. (for long-term storage). If intracellular epitopes were stained, cells were permebealized in 90% MeOH for 30 minutes on ice. Unless processed immediately, samples were also be stored in 90% MeOH at −20° C. for up to two months. • Further staining procedure (permebealized or non-permebealized cells): • Cells were washed 1× in PBS and blocked in blocking buffer; either PBS+0.5% BSA or PBS+1:1000 Octagam (5 mg/ml) for 15 minutes at room temperature. Thereafter, cells were incubated with primary AB at the indicated dilutions in incubation buffer (IB, PBS+0.5% BSA) for 1 hour at room temperature. Cells were then washed 3× with IB and incubated with secondary AB (conjugated to a fluorescent flurophore) at 1:1000 dilution in IB for 30 minutes at room temperature. Finally, cells were washed 3× in IB and resuspended in PBS. Cells were analyzed immediately, or stored for up to 24 hours at 4° C. before analysis. • Analysis of cells was done on a BD LSR Fortessa or a BD C6 Accuri flow cytometer, and further processing was done using FlowJo v.7.6. • All incubation steps (but not storage) were done on a spinning wheel or gentle shaker.
(§2) The diversity of AML cells and their responses was investigated using a panel of AML cell lines and assessing their responses after BGB324-treatment.
(§3) When investigating phospho-markers, the cells were starved overnight in the appropriate growth medium containing 0.1% FBS, pre-treated with BGB324 at 0.5 and 1 μM for one hour, and stimulated with 10% FBS for 20 minutes (to induce phosphorylation, with BGB324 present). Cells were then fixed and stained for flow cytometric analyses.

totAxl = assay: Total Axl in AML cell panel, long-term treatment, flow cytometry; format: cell-based, human
Procedure: as §1, §2
Long-term treatment was done in complete medium, without starvation. The responders were treated with 0.05, 0.1 or 0.3 μM BGB324, whereas the non-responders were treated with only a single dose of 2.5 μM BGB324. The cells were fixed after 24, 48 or 72 hours, and the samples were stored in 90% MeOH at −20° C. until all samples were harvested, and stained for flow at the same time.

Akt(S473) = assay: pAkt(S473) in blood of healthy volunteers treated ex vivo; format: cell-based, human; conditions: blood of two healthy volunteers, 1 μM, 30 minutes ex vivo; signal very low, disregarded as false
Procedure: Staining of Blood for Flow Cytometry, General Protocol: • Human blood from healthy donors was collected in the presence of sodium citrate and mixed with 20 volumes of pre-warmed BD phosflow lyse/fix buffer (diluted to 1× in destilled water), followed by incubation in 37° C. water bath for 10 minutes. Cells were spun at 500 g for 8 minutes and washed once with PBS. • Cells were permebilized by adding 70% MeOH followed by 30 min incubation on ice. Unless processed immediately, samples were at this point stored in MeOH at −20° C. for up to 4 weeks. • Staining of permeabilized cells: • Cells were spun at 600 g, washed twice and resuspended in IB. Cells were aliquoted into volums corresponding to 100 ul collected blood (before dilution), and stained as described above (section two in “Staining of cells for flow cytometry, general protocol”). • All washing and incubation steps were done on a spinning wheel or gentle shaker.
Blood samples from BGB324-treated individuals were not available, so BGB324-treatment was simulated by incubating fresh unfixed blood samples with 1 μM BGB324 for 30 minutes before fixation. Thereafter, samples were fixed, permebealized, and stained for flow with pAxl and pAkt antibodies to examine whether we could see a response to BGB324-treatment in these biomarkers (see FIG. 7). Phosphatase-treated cells were included as a negative staining control.

pErk = pErk in AML cell panel, short term treatment, flow cytometry; format: cell-based, human
Procedure: as §1, §2, §3

pAkt (S473) = assay: pAkt(S473) in AML cell panel, short term treatment, flow cytometry; format: cell-based, human; conditions: 1 hour
Procedure: as §1, §2, §3

SLFN11 = assay: Microarray analysis of xenograft material, SLFN11 transcript; format: in vivo, mice
Excerpt: Slfn11 was included in the biomarker panel following microarray analysis of Mv4-11 and MOLM13 xenograft material after BGB324-treatment.

[1] = tested on: MOLM13 systemic xenograft; assay: Leukemic (CD33/CD45-positive) cells in MOLM13 systemic xenograft model; format: in vivo, mice; conditions: 50 mg/kg for 4 days
Procedure: (§4) Material from an in vivo MOLM13 systemic model was also evaluated by flow cytometry. Expression of the previously evaluated biomarkers was examined in cells isolated from bone marrows and spleens of animals with systemic AML disease (MOLM13, inoculated for 7 days prior to treatment) treated with BGB324 at 50 mg/kg for 4 days. The spleens analysed were from the same study that was analysed by microarray, as mentioned above. The bone marrows were from an identical study that was done at a later time point to get more material for flow analyses.
Cells harvested from spleens, blood and bone marrows of the animals were stained with anti CD33 and CD45 antibodies, to determine if systemic disease was established. CD33/CD45-positive cells were found in spleens (around 10-15%), bone marrows (35-40%) and in the blood (2-6%) of the animals, confirming that the disease was established.

pPLCγ1 = pPLCγ1 in CD33-positive cells, MOLM13 systemic xenograft model, flow cytometry; format: in vivo, mice; conditions: 50 mg/kg for 4 days
Procedure: as §4
Cells isolated from spleens and bone marrows were assessed for phosphorylation of Erk, PLCγ1 and Akt, and expression of PHGDH and SLFN11. The samples were also co-stained with CD33, and biomarker expression was only evaluated in CD33-positive cells.

[2] = Mv4-11 subcutaneous xenograft, 14 days of treatment

Nc1nc(Nc2ccc3c(c2)CC[C@@H](N2CCCC2)CC3)nn1-c1cc2c(nn1)-c1ccccc1CCC2 [BGB324, 1-(6,7-dihydro-5H-benzo[6,7]cyclohepta[1,2-c]pyridazin-3-yl)-N3-((7-(S)-pyrrolidin-1-yl)-6,7,8,9-tetrahydro-5H-benzo[7]annulene-2-yl)-1H-1,2,4-triazole-3,5-diamine] was tested, and the “PHGDH transcript (microarray)” value (PHGDH; MOLM13 systemic xenograft model, spleen and bone marrow) was “significantly downregulated; also recorded: significantly reduced”, the “PHGDH transcript (microarray)” value (PHGDH; [2]) was “one of the most significantly downregulated transcripts; also recorded: significantly downregulated” and the “PHGDH transcript alteration after treatment (microarray)” value (PHGDH; both Mv4-11 subcutaneous and MOLM13 systemic xenograft models) was “more than 1.5 fold”. For the same compound, the pAxl (pAxl (Y779); Kasumi, 0.5 and 1 μM) was “no response to treatment”, the “phosphorylation of Axl at Y779” value (pAxl (Y779); MOLM13, 0.5 and 1 μM) was “significantly reduced” and the “phosphorylation of Axl at Y779” value (pAxl (Y779); Mv4-11, 0.5 and 1 μM) was “significantly reduced”. For the same compound, the pAxl (pAxl (Y779); OCI-M1, highest treatment dose) was “slight (but significant) reduction of pAxl”, the Axl expression (totAxl; Kasumi, 2.5 μM, 24-72 hours) was “goes significantly up” and the Axl expression (totAxl; MOLM13, 0.3 μM, 24 hours) was “slight and significant reduction of Axl”. For the same compound, the Axl expression (totAxl; Mv4-11, 0.3 μM, 24 hours and 72 hours) was “slight and significant reduction of Axl”, the Axl expression (totAxl; OCI-AML5, 2.5 μM, 24-72 hours) was “goes significantly up” and the pAkt (Akt(S473)) was “very slight reduction in pAkt”. For the same compound, the pErk (pErk; Kasumi, 1 hour) was “no significant differences in pErk”, the “phosphorylation of Erk” value (pErk; MOLM13, all treatment doses, 1 hour) was “strong and significant reduction” and the “phosphorylation of Erk” value (pErk; Mv4-11, all treatment doses, 1 hour) was “strong and significant reduction”. For the same compound, the pErk (pErk; OCI-M1, 1 hour) was “no significant differences in pErk”, the Akt phosphorylation (pAkt (S473); Kasumi, 0.5 and 1 μM) was “close to no effect” and the Akt phosphorylation (pAkt (S473); MOLM13, 0.5 and 1 μM, 10% FBS stimulation) was “inhibits Akt phosphorylation”. For the same compound, the Akt phosphorylation (pAkt (S473); Mv4-11, 0.5 and 1 μM, not significant at 0.5 μM) was “inhibits Akt phosphorylation”, the pAkt (pAkt (S473); OCI-M1, 1 μM) was “slight and significant inhibition of pAkt” and the Akt phosphorylation (pAkt (S473); OCI-M1, 0.5 and 1 μM) was “close to no effect”. For the same compound, the “SLFN11 transcript (microarray)” value (SLFN11; MOLM13 systemic xenograft model) was “not significantly reduced”, the “SLFN11 transcript (microarray)” value (SLFN11; [2]) was “one of the most significantly downregulated transcripts” and the “SLFN11 transcript (microarray)” value (SLFN11; Mv4-11 xenograft, single dose 100 mg/kg, 24 hours after treatment) was “significantly downregulated”. For the same compound, the “percentage of leukemic cells vs. vehicle-treated mice” value (“percentage” below) ([1]; blood) was “significantly higher percentage of leukemic cells”, the “percentage” value ([1]; bone marrows) was “no significant differences” and the “percentage” value ([1]; spleens) was “no significant differences”. For the same compound, the pPLCγ1 (pPLCγ1; bone marrows) was “significant reduction” and the pPLCγ1 (pPLCγ1; spleens) was “significant reduction”.

— US11035008B2, “Biomarkers for cancer” (BERGENBIO ASA, priority 2015, dated 2021)
